Values after ≈ are worked out from the molar mass of the structure shown. Active and inactive are the calls of the source. The rule behind the calls is not given here.
Key:
[1] = Metabolic stability in mouse kidney assessed as parent compound remaining measured after 4 hrs by UPLC-MS analysis; assay type: ADME, tissue-based; settings: read-out: Stability
[2] = Metabolic stability in mouse lung assessed as parent compound remaining measured after 4 hrs by UPLC-MS analysis; assay type: ADME, tissue-based; settings: mouse lung, read-out: Stability
[3] = Metabolic stability in mouse lung assessed as parent compound remaining measured after 1 hrs by UPLC-MS analysis; assay type: ADME, tissue-based; settings: mouse lung, read-out: Stability
[4] = Metabolic stability in mouse kidney assessed as parent compound remaining measured after 1 hrs by UPLC-MS analysis; assay type: ADME, tissue-based; settings: read-out: Stability
Escherichia coli [5] = test: Antibacterial activity against Escherichia coli ATCC 35218 infected in Swiss albino mouse model of Septicaemia infection assessed as log reduction in Septicaemia in blood at 1 mg/kg , iv preincubated for 4 hrs followed by bacterial infection and measured after 4 hrs post infection; assay type: functional; settings: time 8 hrs
Escherichia coli [6] = test: Antibacterial activity against wild type Escherichia coli ATCC 35218 assessed as reduction in microbial growth incubated for 20 to 22 hrs by CLSI based analysis; assay type: functional; settings: time 20-22 hrs
Escherichia coli [7] = test: Antibacterial activity against Escherichia coli ATCC 35218 harboring SbmA assessed as reduction in microbial growth incubated for 20 to 22 hrs by CLSI based analysis; assay type: functional; settings: time 20-22 hrs
Klebsiella pneumoniae [8] = test: Antibacterial activity against wild type Klebsiella pneumoniae ATCC 13883 assessed as reduction in microbial growth incubated for 20 to 22 hrs by CLSI based analysis; assay type: functional; settings: time 20-22 hrs
Klebsiella pneumoniae [9] = test: Antibacterial activity against Klebsiella pneumoniae ATCC 13883 harboring SbmA assessed as reduction in microbial growth incubated for 20 to 22 hrs by CLSI based analysis; assay type: functional; settings: time 20-22 hrs
Acinetobacter baumannii [10] = test: Antibacterial activity against wild type Acinetobacter baumannii ATCC 19606 assessed as reduction in microbial growth incubated for 20 to 22 hrs by CLSI based analysis; assay type: functional; settings: time 20-22 hrs
Escherichia coli [11] = test: Antibacterial activity against Escherichia coli ATCC 25922 infected in Swiss albino mouse thigh infection model at 10 mg/kg, iv measured after 1 hr; assay type: functional, organism-based
Klebsiella pneumoniae [12] = test: Antibacterial activity against Klebsiella pneumoniae ATCC 13883 infected in Swiss albino mouse thigh infection model at 10 mg/kg, iv measured after 1 hr; assay type: functional, organism-based
Klebsiella pneumoniae [13] = test: Antibacterial activity against Klebsiella pneumoniae ATCC 13883 infected in Swiss albino mouse model of neutropenic lung infection at 10 mg/kg, iv pretreated for 1 hr followed by bacterial infection and measured after 5 hr post infection; assay type: functional, organism-based; settings: time 6.0 hrs
Escherichia coli [14] = test: Antibacterial activity against Escherichia coli ATCC 35218 assessed as reduction in microbial growth incubated for 20 to 22 hrs by CLSI based analysis; assay type: functional; settings: time 20-22 hrs
Klebsiella pneumoniae [15] = test: Antibacterial activity against Klebsiella pneumoniae ATCC 13883 assessed as reduction in microbial growth incubated for 20 to 22 hrs by CLSI based analysis; assay type: functional; settings: time 20-22 hrs
Acinetobacter baumannii [16] = test: Antibacterial activity against Acinetobacter baumannii ATCC 19606 assessed as reduction in microbial growth incubated for 20 to 22 hrs by CLSI based analysis; assay type: functional; settings: time 20-22 hrs
Escherichia coli [17] = test: Antibacterial activity against Escherichia coli ATCC 35218 infected in Swiss albino mouse model of Septicaemia infection assessed as log reduction in Septicaemia in blood at 20 mg/kg , iv preincubated for 4 hrs followed by bacterial infection and measured after 4 hrs post infection; assay type: functional; settings: time 8 hrs
Escherichia coli [18] = test: Antibacterial activity against […] assessed as bacterial growth inhibition incubated for 20 to 22 hrs by CLSI based analysis; assay type: functional; settings: time 20-22 hrs
Escherichia coli [19] = test: Antibacterial activity against multidrug-resistant Escherichia coli BAA2469 assessed as bacterial growth inhibition incubated for 20 to 22 hrs by CLSI based analysis; assay type: functional; settings: time 20-22 hrs
Escherichia coli [20] = test: Antibacterial activity against multidrug-resistant Escherichia coli IR45 assessed as bacterial growth inhibition incubated for 20 to 22 hrs by CLSI based analysis; assay type: functional; settings: time 20-22 hrs
Klebsiella pneumoniae [21] = test: Antibacterial activity against multidrug-resistant Klebsiella pneumoniae BAA2146 assessed as bacterial growth inhibition incubated for 20 to 22 hrs by CLSI based analysis; assay type: functional; settings: time 20-22 hrs
Klebsiella pneumoniae [22] = test: Antibacterial activity against multidrug-resistant Klebsiella pneumoniae B817 assessed as bacterial growth inhibition incubated for 20 to 22 hrs by CLSI based analysis; assay type: functional; settings: time 20-22 hrs
Pseudomonas aeruginosa [23] = test: Antibacterial activity against multidrug-resistant Pseudomonas aeruginosa PAO1 assessed as bacterial growth inhibition incubated for 20 to 22 hrs by CLSI based analysis; assay type: functional; settings: time 20-22 hrs
Pseudomonas aeruginosa [24] = test: Antibacterial activity against multidrug-resistant Pseudomonas aeruginosa PAO750 assessed as bacterial growth inhibition incubated for 20 to 22 hrs by CLSI based analysis; assay type: functional; settings: time 20-22 hrs
Enterobacter cloacae = test: Antibacterial activity against multidrug-resistant Enterobacter cloacae BAA2341 assessed as bacterial growth inhibition incubated for 20 to 22 hrs by CLSI based analysis; assay type: functional; settings: time 20-22 hrs
Proteus mirabilis = test: Antibacterial activity against multidrug-resistant Proteus mirabilis ATCC 7002 assessed as bacterial growth inhibition incubated for 20 to 22 hrs by CLSI based analysis; assay type: functional; settings: time 20-22 hrs
Citrobacter freundii = test: Antibacterial activity against multidrug-resistant Citrobacter freundii ATCC 8090 assessed as bacterial growth inhibition incubated for 20 to 22 hrs by CLSI based analysis; assay type: functional; settings: time 20-22 hrs
Providencia stuartii = test: Antibacterial activity against multidrug-resistant Providencia stuartii ATCC 49809 assessed as bacterial growth inhibition incubated for 20 to 22 hrs by CLSI based analysis; assay type: functional; settings: time 20-22 hrs
Escherichia coli [25] = test: Antibacterial activity against multidrug-resistant Escherichia coli MG1655 assessed as bacterial growth inhibition incubated for 20 to 22 hrs by CLSI based analysis; assay type: functional; settings: time 20-22 hrs
Escherichia coli [26] = test: Antibacterial activity against multidrug-resistant Escherichia coli MG1655 harboring tolC mutant assessed as bacterial growth inhibition incubated for 20 to 22 hrs by CLSI based analysis; assay type: functional; settings: time 20-22 hrs
Escherichia coli [27] = test: Antibacterial activity against multidrug-resistant Escherichia coli UT189 assessed as bacterial growth inhibition incubated for 20 to 22 hrs by CLSI based analysis; assay type: functional; settings: time 20-22 hrs
Klebsiella pneumoniae [28] = test: Antibacterial activity against […] assessed as bacterial growth inhibition incubated for 20 to 22 hrs by CLSI based analysis; assay type: functional; settings: time 20-22 hrs
Klebsiella pneumoniae [29] = test: Antibacterial activity against multidrug-resistant Klebsiella pneumoniae G199 assessed as bacterial growth inhibition incubated for 20 to 22 hrs by CLSI based analysis; assay type: functional; settings: time 20-22 hrs
Klebsiella pneumoniae [30] = test: Antibacterial activity against multidrug-resistant Klebsiella pneumoniae BAA2473 assessed as bacterial growth inhibition incubated for 20 to 22 hrs by CLSI based analysis; assay type: functional; settings: time 20-22 hrs
Klebsiella pneumoniae [31] = test: Antibacterial activity against multidrug-resistant Klebsiella pneumoniae R1525 assessed as bacterial growth inhibition incubated for 20 to 22 hrs by CLSI based analysis; assay type: functional; settings: time 20-22 hrs
Acinetobacter baumannii [32] = test: Antibacterial activity against multidrug-resistant Acinetobacter baumannii R835 assessed as bacterial growth inhibition incubated for 20 to 22 hrs by CLSI based analysis; assay type: functional; settings: time 20-22 hrs
Acinetobacter baumannii [33] = test: Antibacterial activity against multidrug-resistant Acinetobacter baumannii R831 assessed as bacterial growth inhibition incubated for 20 to 22 hrs by CLSI based analysis; assay type: functional; settings: time 20-22 hrs

Row | SMILES | remaining at 4 h [1] [%] | remaining at 4 h [2] [%] | remaining at 1 h [3] [%] | remaining at 1 h [4] [%] | Activity (Escherichia coli [5]) [log10CFU] | MIC (Escherichia coli [6]) [µg/mL] | MIC (Escherichia coli [7]) [µg/mL] | MIC (Klebsiella pneumoniae [8]) [µg/mL] | MIC (Klebsiella pneumoniae [9]) [µg/mL] | MIC (Acinetobacter baumannii [10]) [µg/mL] | Activity (Escherichia coli [11]) | Activity (Klebsiella pneumoniae [12]) | Activity (Klebsiella pneumoniae [13]) | MIC (Escherichia coli [18]) [µg/mL] | MIC (Escherichia coli [19]) [µg/mL] | MIC (Klebsiella pneumoniae [21]) [µg/mL] | MIC (Pseudomonas aeruginosa [23]) [µg/mL] | MIC (Pseudomonas aeruginosa [24]) [µg/mL] | MIC (Enterobacter cloacae) [µg/mL] | MIC (Proteus mirabilis) [µg/mL] | also measured
1 | CO[C@@H](CNC(=O)[C@H](NC(=O)[C@H](O)[C@H](C)O)[C@H](O)c1cncn1C)[C@H](O)[C@H](O)C(=O)N(C)[C@@H](Cc1ccc(F)cc1)C(=O)NCC(=O)N[C@H](C(=O)N[C@@H](CO)C(=O)N[C@H](C(=O)N[C@H](C(=O)N[C@@H](CO)C(=O)NCc1cc(=O)c(O)cn1O)C(C)(C)C)C(C)(C)O)C(C)(C)O | 28 | 54 | 81 | 44 | -5.6 | < 0.01 | 2 | 0.125 | > 32 | 0.5 | – | – | – | – | – | – | – | – | – | – | –
2 | CO[C@@H](CNC(=O)[C@H](NC(=O)[C@H](O)[C@H](C)O)[C@H](O)c1cncn1C)[C@H](O)[C@H](O)C(=O)N(C)[C@@H](Cc1ccccc1)C(=O)NCC(=O)N[C@H](C(=O)N[C@@H](CO)C(=O)N[C@H](C(=O)N[C@H](C(=O)N[C@@H](CCC(=O)NCc1cc(=O)c(O)cn1O)C(=O)O)C(C)(C)C)C(C)(C)O)C(C)(C)O | 103 | 99 | 100 | 97 | -3.2 | 0.01 | 0.12 | 0.25 | > 32 | 0.5 | Active | Active | Active | – | – | – | – | – | – | – | –
3 | CC[C@H](C)[C@H](NC(=O)[C@@H](NC(=O)[C@H](CO)NC(=O)[C@@H](NC(=O)CNC(=O)[C@H](Cc1ccccc1)N(C)C(=O)[C@@H](O)[C@@H](O)[C@H](CNC(=O)[C@H](NC(=O)[C@H](O)[C@H](C)O)[C@H](O)c1cncn1C)OC)C(C)(C)O)C(C)(C)O)C(=O)N[C@@H](CO)C(=O)O | 11 | 13 | 35 | 20 | – | – | – | – | – | – | – | – | – | – | – | – | – | – | – | – | MIC (Escherichia coli [14]): 4 µg/mL; MIC (Klebsiella pneumoniae [15]): 16 µg/mL; MIC (Acinetobacter baumannii [16]): > 32 µg/mL; Activity (Escherichia coli [17]): -1.9 log10CFU
4 | C[C@@H](O)[C@H]1C(=O)N2C(C(=O)O)=C(S[C@@H]3CN[C@H](C(=O)N(C)C)C3)[C@H](C)[C@H]12 [MEROPENEM] | – | – | – | – | – | – | – | – | – | – | – | – | – | < 0.03 | < 0.03 | > 16 | 1 (≈ 2.61 µM) | ≤ 0.25 | > 16 | ≤ 0.25 | MIC (Escherichia coli [20]): 8 µg/mL (≈ 20.9 µM); MIC (Klebsiella pneumoniae [22]): < 0.03 µg/mL; MIC (Citrobacter freundii): ≤ 0.25 µg/mL; MIC (Providencia stuartii): ≤ 0.25 µg/mL
5 | C[C@@H](O)[C@H]1C(=O)N2C(C(=O)O)=C(SCCNC=N)C[C@H]12 [IMIPENEM ANHYDROUS] | – | – | – | – | – | – | – | – | – | – | – | – | – | 0.25 (≈ 0.835 µM) | > 2 | > 16 | 2 (≈ 6.68 µM) | 1 (≈ 3.34 µM) | > 64 | 1 (≈ 3.34 µM) | MIC (Escherichia coli [25]): ≤ 0.015 µg/mL; MIC (Escherichia coli [26]): ≤ 0.015 µg/mL; MIC (Escherichia coli [27]): ≤ 0.25 µg/mL; MIC (Klebsiella pneumoniae [28]): 16 µg/mL (≈ 53.4 µM); MIC (Klebsiella pneumoniae [29]): 16 µg/mL (≈ 53.4 µM); MIC (Klebsiella pneumoniae [30]): 1 µg/mL (≈ 3.34 µM); MIC (Klebsiella pneumoniae [31]): > 64 µg/mL; MIC (Citrobacter freundii): 1 µg/mL (≈ 3.34 µM); MIC (Providencia stuartii): < 0.125 µg/mL; MIC (Acinetobacter baumannii [32]): > 1 µg/mL; MIC (Acinetobacter baumannii [33]): > 64 µg/mL
6 | CO[C@@H](CNC(=O)[C@H](NC(=O)[C@H](O)[C@H](C)O)[C@H](O)c1cncn1C)[C@H](O)[C@H](O)C(=O)N(C)[C@@H](Cc1ccccc1)C(=O)NCC(=O)N[C@H](C(=O)N[C@@H](CO)C(=O)N[C@H](C(=O)N[C@H](C(=O)N[C@@H](CO)C(=O)N[C@@H](CCC(=O)NCc1cc(=O)c(O)cn1O)C(=O)O)C(C)(C)C)C(C)(C)O)C(C)(C)O | 81 | 86 | 91 | 92 | -3.8 | < 0.01 | 0.12 | 0.06 | > 32 | 0.25 | Active | Active | Active | – | – | – | – | – | – | – | –

From ChEMBL document CHEMBL5356971, “Optimization of the Antibacterial Spectrum and the Developability Profile of the Novel-Class Natural Product Corramycin” (J Med Chem, 2023)
